Test results as given in US20230398228A1, “ERIBULIN-BASED ANTIBODY-DRUG CONJUGATES AND METHODS OF USE” (EISAI R&D MANAGEMENT CO., LTD., priority 2016, published 2023).
Where “and” joins values, the source holds several entries; their conditions need not be identical. Identical values can stand only once.

Columns and labels:
HL-60 cells = assay: Bystander killing assay, Nuclight Red HL-60; type: cell-based, human; conditions: Homo sapiens; HL-60 cells treated with free eribulin; read-out: EC50, HL-60 (eribulin)
Experimental: The day before study commencement, Nuclight™ Green (NLG) IGROV1 cells were seeded at 5,000 cells/well into 96-well round bottom plates, followed by centrifugation at 1,000 rpm for 3 min at room temperature to ensure formation of a cell pellet. The plate was placed in the vessel of an Incucyte Zoom® (EssenBio science) and incubated at 37° C./5% CO2 overnight. The program was set to collect images of cell growth, and to determine total numbers of nuclear green-stained and nuclear red-stained cells as well as phase-confluency of the cells every two hours. […] 50 μL of cytotoxin solution was added to the NLG-IGROV1 cells and incubated for 30 min. During the incubation period, Nuclight™ Red (NLR) HL-60 (FR^neg) cells were diluted to 2×10^5, 1×10^5 or 5×10^4 cell/mL with fresh media. 50 μL of the NLR-HL60 cell suspension or medium alone was added to the NLG-IGROV1 wells, followed by centrifugation at 1,000 rpm for 3 min at room temperature to ensure re-formation of the cell pellet. The plate was placed back into the vessel of Incucyte Zoom (EssenBio science) and incubated at 37° C./5% CO2 for up to 5 days. Relative cell growth of NLG-IGROV1 was determined by comparison to no ADC or free drug alone added samples using green cell counts. Relative cell growth of HL60 was done similarly, except that red cell count was determined. Determination of IC50 values for both NLG-IGROV1 and NLR-HL-60 was determined using Prism (GraphPad).
In order to assess bystander killing activity, an assay was set up using two labeled cell lines. […] Cytotoxicity was monitored by an Incucyte Zoom® cell imager.

[1] = Maximum tolerated dose of eribulin in CD-1 mice; type: in vivo, mouse; conditions: for toxicity, in words: q4dx3
Experimental: Naïve CD-1 mice were injected intravenously with 200 μL of eribulin according to the schedule in Table 22. Body weight was measured three times a week including prior to dose on each dosing day and 24 hours following each dose. […] The terminal body weight was measured and recorded. Euthanized mice at the end of the study (and if any mouse euthanized or found dead during the study) were processed for necropsy. Organs were examined for signs of tissue damage.

[2] = test system: human BM-MSCs co-cultured with MKN-74 cells; assay: 3D co-culture system (rStomach, zPredicta), MSC differentiation by flow cytometry; type: cell-based; conditions: 7 days treatment, MORAb-202 10 nM, MORAb-003 10 nM, eribulin […] and 0.2 nM (Table 41)
Experimental: All mesenchymal stem cell (MSC)-containing 3D co-culture experiments were conducted in zPredicta, using organ-specific 3D extracellular matrix systems such as rStomach™. Bone marrow mesenchymal stem cells (BM-MSCs) in rStomach™ were co-cultured with the Nuc Red Light MKN-74 gastric cancer cell line in quadruplicate in 48-well format for 12 days. […] Prior to culture, BM-MSCs were evaluated for target antigen expression and for markers of MSC differentiation (Table 40) by flow cytometry.
Controls included untreated and vehicle-treated (PBS and DMSO) cultures. MSC differentiation was monitored by light microscopy. Once visible differentiation was observed, samples were harvested for staining and flow cytometry analysis.
Bone marrow mesenchymal stem cells (BM-MSCs) in rStomach™ (zPredicta) were co-cultured with the MKN-74 gastric cancer cell line for 12 days. […] Once visible MSC differentiation was observed by light microscopy, samples were harvested for staining and flow cytometry analysis.

IGROV1 cells = assay: Crystal Violet cytotoxicity assay (Example 4), IGROV1; type: cell-based, human; conditions: Homo sapiens, IGROV-1, mean of replicate experiments, read-out: Cytotoxicity IC50 (nM), IGROV1 (FR^hi, MSLN^neg)
Experimental: (§1) Test reagents were serial diluted 1:3 in 2 mL deep-well dilution plates, starting at 200 nM (10 dilutions total). […] Medium was then discarded. […] Plates were read at 570 nm. Data was analyzed using GraphPad Prism 6.

NCI-H2110 cells = assay: Crystal Violet cytotoxicity assay (Example 4), NCI-H2110; type: cell-based, human; conditions: Homo sapiens, mean of replicate experiments, read-out: Cytotoxicity IC50 (nM), NCI-H2110 (FR^med, MSLN^med)
Experimental: as §1

A431 cells = assay: Crystal Violet cytotoxicity assay (Example 4), A431 (parental); type: cell-based, human; conditions: Homo sapiens, A-431, mean of replicate experiments, read-out: Cytotoxicity IC50 (nM), A431 (FR^neg, MSLN^neg)
Experimental: Test reagents were serial diluted 1:3 in 2 mL deep-well dilution plates, starting at 200 nM (10 dilutions total). […] Medium was then discarded. […] Plates were read at 570 nm. Data was analyzed using GraphPad Prism 6. […]
MAL-PEG2-Val-Cit-PAB-eribulin (ER-001159569) was conjugated to eight different anti-human mesothelin antibodies (Table 1). Binding affinities of the parental antibodies were determined by BIAcore analysis, as described above in section 1.6.1. Aggregation levels for all anti-human mesothelin ADCs were determined by SEC-HPLC and the DAR was analyzed using HIC-HPLC. In vitro potency was evaluated using a Crystal Violet cell-based cytotoxicity assay in A3 (A431 stabily transfected with human mesothelin (MSLN), MSLN^hi), OVCAR3 (human ovarian, MSLN^hi), HEC-251 (human endometroid, MSLN^med), H226 (human lung squamous cell mesothelioma, MSLN^lo), and A431 parental (MSLN^neg) cells.

NCI-N87 cells = assay: Crystal Violet cytotoxicity assay (Example 4), NCI-N87; type: cell-based, human; conditions: Homo sapiens; NCI-N87-Luc cells; mean of replicate experiments; read-out: Cytotoxicity IC50 (nM), NCI-N87-Luc (FR^lo, MSLN^med, her2^hi)
Experimental: as §1

BT-474 cells = assay: Crystal Violet cytotoxicity assay (Example 4), BT-474; type: cell-based, human; conditions: Homo sapiens; BT-474 cells; mean of replicate experiments; read-out: Cytotoxicity IC50 (nM), BT-474 (FR^neg, MSLN^neg, her2^hi)
Experimental: as §1

ZR-75 cells = assay: Crystal Violet cytotoxicity assay (Example 4), ZR-75; type: cell-based, human; conditions: Homo sapiens, ZR75; ZR-75-1 cells; mean of replicate experiments; read-out: Cytotoxicity IC50 (nM), ZR-75-1 (FR^neg, MSLN^neg, her2^med)
Experimental: as §1

NUGC3 cells = assay: Crystal Violet cytotoxicity assay (Example 4), NUGC3; type: cell-based, human; conditions: Homo sapiens, NUGC-3; NUGC3-Luc cells; mean of replicate experiments; read-out: Cytotoxicity IC50 (nM), NUGC3-Luc (FR^neg, MSLN^neg, her2^neg)
Experimental: as §1

in vivo [3] = conditions: female, NMRI nu/nu, mouse, iv
Experimental: (§2) Tumor fragments were implanted subcutaneously into the left flank of 40 NMRI nu/nu female mice, and tumor volume was monitored. Mice with a tumor volume of 100-160 mm^3 were randomized into one of four groups (Groups A-D, Table 39). […] Each group consisted of 8 animals. The day of randomization was designated as Day 0 of the experiment.
(§3) Tumor growth was evaluated by the measurement of two perpendicular diameters twice weekly, and tumor volume (TV), relative tumor volume (RTV) and treated/control (T/C) values were calculated. Body weight was also evaluated twice weekly as a parameter for toxicity, with the calculation of the body weight per group and body weight changes (BWC) relative to the start of treatment. Animals were sacrificed when the individual tumor volume exceeded 1 cm^3, or at the end of the study.

in vivo [4] = conditions: female, NMRI nu/nu, mouse, iv; remark: listed apart in the source
Experimental: as §2, §3

[5] = test system: Endo-12961 endometrial cancer patient-derived xenograft; assay: Endometrial cancer PDx model Endo-12961; conditions: for anti-tumor activity, in words: single i.v. dose
Experimental: as §2, §3

[6] = test system: Endo-10590 endometrial cancer patient-derived xenograft; assay: Endometrial cancer PDx model Endo-10590; conditions: for anti-tumor activity, in words: single i.v. dose
Experimental: as §2, §3

[7] = MORAb-202 5 mg/kg or eribulin 3.2 mg/kg

With C=C1C[C@@H]2CC[C@@]34C[C@H]5O[C@H]6[C@@H](O3)[C@H]3O[C@H](CC[C@@H]3O[C@H]6[C@H]5O4)CC(=O)C[C@@H]3[C@@H](OC)[C@@H](C[C@H](O)CN)O[C@H]3C[C@H]3O[C@@H](CC[C@@H]1O2)C[C@@H](C)C3=C [eribulin] the EC50 (HL-60 cells) was 0.17 nM, the “clinical finding, in words” value ([1]; 3.2 mg/kg q4dx3, after the second dose) was “piloerection in all three mice” and the “body weight loss of individual mouse” value ([1]; 3.2 mg/kg q4dx3, after the third dose) was 17% and 8%. For the same compound, the “toxicity, in words” value ([1]; 3.2 mg/kg) was “severe weight loss”, the “toxicity, in words” value ([1]; doses up to 1.6 mg/kg) was “no toxicity” and the “body weight loss or clinical findings, in words” value ([1]; doses up to 1.6 mg/kg, q4dx3, i.v.) was “No significant body weight loss or clinical findings indicating toxicity”. For the same compound, the “gross organ changes at necropsy, in words” value ([1]; mouse, in vivo) was “No gross changes”, the MTD ([1]; mouse, in vivo, iv, q4dx3, i.v., CD-1 mice) was 1.6 mg/kg and the “Percentage of live cells, Pericytes” value ([2]; PBS 14.6%) was 25.8%. The “Percentage of live cells, Adipocytes” value ([2]; PBS […]) was 2.68%, the “Percentage of live cells, MSCs” value ([2]; PBS […]) was 29.9% and the IC50 (IGROV1 cells) was 0.32 nM. The IC50 (NCI-H2110 cells) was 0.199 nM, the IC50 (A431 cells) was 0.653 nM and the IC50 (NCI-N87 cells) was 0.257 nM. The IC50 (BT-474 cells) was 0.151 nM, the IC50 (ZR-75 cells) was 0.236 nM and the IC50 (NUGC3 cells) was 0.445 nM. For the same compound, the MTD (in vivo [3]) was 3.2 mg/kg, the MTD (in vivo [4]) was 3.2 mg/kg and the “tumor re-growth during the study, in words” value [5, 7] was “began to re-grow”. The “anti-tumor activity, in words” value [5, 7] was “significant anti-tumor activity”, the “anti-tumor activity, in words” value ([5]; eribulin 0.1 mg/kg) was “no significant anti-tumor activity” and the “effect on body weight, in words” value ([5]; first week post-treatment) was “temporarily affected body weight”. For the same compound, the “tumor re-growth during the study, in words” value [6, 7] was “began to re-grow”, the “anti-tumor activity, in words” value [6, 7] was “significant anti-tumor activity” and the “anti-tumor activity, in words” value ([6]; eribulin 0.1 mg/kg) was “no significant anti-tumor activity”. The “effect on body weight, in words” value ([6]; first week post-treatment) was “temporarily affected body weight”.
